From US20090155345A1, “METHODS FOR AFFECTING LIPOSOME COMPOSITION ULTRASOUND IRRADIATION” (BEN GURION UNIVERSITY OF THE NEGEV RESEARCH AND DEVELOPMENT …, priority 2005, published 2009)
Structures can show the parent of a compound that is named as a salt.

Tests used:
[1] = cited from earlier work
[2] = Chemical integrity of LFUS-irradiated drugs and lipids (HPLC, NMR, TLC); format: physicochemical; details: 20 kHz, 3.3 W/cm^2, 30 to 180 s; HPLC (doxorubicin, MPS), NMR (cisplatin)
Protocol: Thin layer gel chromatography (TLC) was used to determine if any chemical changes were induced in the liposome lipids by exposure to ultrasonic irradiation.
MPS concentration and chemical integrity were determined using HPLC (Hewlett Packard Liquid Chromatograph 1090). ChemStation software (Hewlett Packard) controlled all modules and was used for analysis of the chromatography data. The analytical column used was a C18 5-micron Econosphere, length 150 mm, inner diameter 4.6 mm (Alltech, Carnforth, UK). Sample injection volume was 20 μL. Eluent was monitored at a wavelength of 245 nm with a 10 nm bandwidth.
Experiments were performed on an INOVA 500-MHz spectrometer (Varian, Palo Alto, Calif.) using standard pulse sequences. The Pt chemical shifts were assigned relative to the external reference signal of K2PtCl4, set at −1,624 ppm.

C[C@H]1C[C@@H]2[C@H]([C@@H](O)C[C@@]3(C)[C@H]2CC[C@]3(O)C(=O)COC(=O)CCC(=O)O)[C@@]2(C)C=CC(=O)C=C12 [MPS, Methylprednisolone hemisuccinate sodium salt]
pKa [1]: 4.65

N.N.[Cl][Pt][Cl] [cisplatin, Cisplatin]
chemical changes of drug after LFUS [2]: does not induce any chemical changes

COc1cccc2c1C(=O)c1c(O)c3c(c(O)c1C2=O)C[C@@](O)(C(=O)CO)C[C@@H]3O[C@H]1C[C@H](N)[C@H](O)[C@H](C)O1 [doxorubicin, Doxorubicin-HCl]
chemical changes of drug after LFUS [2]: does not induce any chemical changes
